Earlier results on one compound are cited in patent publication US6718687B2 (priority 2002, dated 2004).

For this data set, the system named is mosquitoes.

For `C=CC(O)CCCCC` (centres unmarked) [Octenol, 1-octen-3-oL], the “results from traps baited with Octenol and CO2 compared with CO2 alone” value (Octenol and CO2 versus CO2 alone) is reported as “not significant”. In addition, the “effectiveness as attractant for mosquitoes” value (Octenol at the release rate tested, unless CO2 was also used) is recorded as “not an effective attractant”.
